Experiments:
Assay type in all cases: biochemical, human
PCT [1] = assay: Signal-to-noise ratio and linear range for PCT detection, purified fusion proteins (Example 3); parameters: key to luminescence value: luminescence normalized against the background value; conditions: for Signal-to-noise ratio at 1000 pg/ml: large subunit 100 nM, small subunit fusion 180 nM, CTZ-h 25 µM, 140 s; for signal-to-noise ratios in luciferase dual-antibody complementary activation for PCT detection: statement in words on Table 3 and Figure 2
Procedure: Test Methods: • (1) MBP-PCT protein was diluted with PBSAD in 10-fold gradient starting from 100 ng/ml, with 8 gradients in total, and 10 µl was added per well; • (2) The large subunit-SCFV5 fusion protein was diluted with PBSA to 100 nM, and 10 µl was added per well; • (3) Different rSCFV18-small subunit mutant fusion proteins were diluted with PBSA to 180 nM, and 10 µl of each was added per well; • (4) The plate was mixed slightly and incubated at 37°C for 10 min; and • (5) 50 µl of Obuffer 6.37-3 containing 25 µM of CTZ-h was added, and after 140 s, the luminescence value was detected. The results are shown after normalization against the background value.

PCT [2] = assay: as above; parameters: key: luminescence normalized against the background value; conditions: PCT 3.3 (pg/ml); normalized against the background value
PCT [3] = assay: Luciferase dual-antibody complementary activation assay for PCT detection, clone supernatants, retest with CTZ-h (Example 1); conditions: for Signal-to-noise ratio: RLU antigen+/RLU antigen-, MBP-PCT 3.3 ng/ml, CTZ-h; for PCT+: luminescence signal value with MBP-PCT 3.3 ng/ml, large subunit-rSCFV5 50 nM, supernatant; for PCT+ / PCT-: retest CTZ-h 25 µM, read after 60 s; for PCT-: luminescence signal value, background control PBSAD without PCT
Procedure: In order to improve the signal-to-noise ratio and complementary activity of the luciferase dual-antibody complementary activation assay, a series of complementary luciferase small subunits were prepared in this example. Large subunit-rSCFV5 fusion protein (SEQ ID NO: 87) was kept unchanged, and the small subunit sequence of the rSCFV18-small subunit P114 fusion protein (SEQ ID NO: 88) was modified by semi-randomization to prepare rSCFV18-small subunit mutant fusion proteins. Based on the sequence of small subunit P114, and with reference to the 3D structure of complementary luciferase, computer-aided sequence design was employed to generate a library with a theoretical diversity of 2.49*10^6. Primers were designed for PCR amplification using the plasmid pComb3x of rSCFV18-small subunit P114 fusion protein as a template. Subsequently, an expression vector library was constructed by means of restriction digestion and ligation (SfiI, NheI), and a semi-random amino acid mutation library was introduced into the small subunit position and transformed into HB2151 competent cells, yielding a library capacity of 7.6*10^9. The 100 plates were spread, and 9,500 single clones were picked and inoculated into 600 µL of 2YTA medium, followed by incubation at 37°C with shaking at 250 rpm for 2 h. When the bacterial density reached approximately OD600 = 0.6~1.0, IPTG was then added to a final concentration of 1 mM, and the culture was further incubated at 30°C with shaking at 250 rpm for 20 h. The next day, the bacteria were collected by centrifugation at 4°C, 4,500g for 10min. The supernatant was discarded, and the precipitate was resuspended with 200µl of PBS containing polymyxin B at a final concentration of 20,000 u/ml. The suspension was incubated at room temperature with shaking at 100rpm for 1h, and then centrifuged at 4500g for 10min, and the supernatant was used for the test.
Test Methods: • (1) The concentration of large subunit-rSCFV5 fusion protein was diluted to 50 nM, and 15 µl was added per well; • (2) MBP-PCT fusion protein was diluted to 3.3 ng/ml with PBSAD, and 15 µl was added per well. The background control was PBSAD, and 10 µl was added per well; • (3) HB2151 strain containing expression plasmids with different small subunit were induced by 1 mM of IPTG at 30°C overnight, then treated with polymyxin B for 1.5 h, and centrifuged to collect the supernatant, and 2.5 µl supernatant was added per well; • (4) The above three components were slightly mixed, incubated at 37°C for 7 min, and Obuffer 6.37-3 containing Furimazine at a concentration of 25 µM was added, and after 80 s, the luminescence signal value was detected using a bioluminescence detector; and • (5) Clones with RLU higher than 10,000 and a signal-to-noise ratio (RLU antigen+/RLU antigen-) higher than that of the rSCFV18-small subunit P114 fusion protein were selected for retesting. The substrate was replaced with CTZ-h for retesting. Obuffer 6.37-3 containing CTZ-h at a concentration of 25 µM was added, and after 60 s, the luminescence signal value was detected using a bioluminescence detector.

PCT [4] = assay: Complementation of purified rSCFV18-small subunit mutant fusion protein with large subunit-rSCFV5 fusion protein, PCT gradient (Example 2); conditions: for luminescence value: CTZ-h 25 µM, 20 s; for Signal-to-noise ratio at 1000 pg/ml: PCT 1000 pg/ml versus 0
Procedure: Protein expression and purification of small subunit mutants: The strains containing plasmids of different small subunits inTable 2, prepared in Example 1, were inoculated into 200ml of 2YTA medium and cultured at 37°C with shaking at 250 rpm for about 3h. When the OD600 reached 1.0, IPTG was added to a final concentration of 1mM, and the culture was further incubated at 30°C with shaking at 250rpm for 20h. The culture were centrifuged at 5,000g for 10min, and the precipitate was resuspended with 10ml of PBS, added with polymyxin B to 20,000u/ml. The suspension was inverted and mixed at room temperature for 1h, and centrifuged at 10,000g to collect the supernatant. The rSCFV18-small subunit mutant fusion protein was purified according to the standard procedure for his-tag protein purification using Ni-NTA resin.
In the same tube, the large subunit-rSCFV5 fusion protein was diluted with PBSA to 50 nM; rSCFV18-small subunit mutant fusion protein was diluted to 90 nM, mixed well, and then 22 µl was added per well; the MBP-PCT fusion protein was diluted in 3-fold gradient with PBSAD (in pg/ml), with 8 gradients in total, 10µl was added per well, and the background control was PBSAD and 10 µl was added per well; the plate was mixed with slight shaking and incubated at 37°C for 6 min, 50 µl of Obuffer 6.37-3 containing 25 µM of CTZ-h then was added, and after 20 s, the luminescence value was detected.

[5] = PCT 100 (pg/ml), normalized against the background value
[6] = PCT 1000 (pg/ml), normalized against the background value
[7] = PCT 10000 (pg/ml), normalized against the background value
[8] = PCT 100000 (pg/ml), normalized against the background value
[9] = PCT 0 pg/ml (background control PBSAD)
[10] = PCT 1000 pg/ml, large subunit 50 nM, small subunit fusion 90 nM

Row | signal-to-noise ratios in luciferase dual-antibody complementary activation for PCT detection (PCT [1]) | Signal-to-noise ratio (PCT [3]) | PCT+ (PCT [3]) | PCT- (PCT [3]) | Sequence | luminescence value (PCT [1]; PCT 0, background, normalized) | luminescence value (PCT [1]; [5]) | luminescence value (PCT [1]; [6]) | luminescence value (PCT [1]; [7]) | luminescence value (PCT [1]; [8]) | Signal-to-noise ratio at 1000 pg/ml (PCT [1]) | luminescence value (PCT [2]) | luminescence value (PCT [4]; [9]) | luminescence value (PCT [4]; PCT 1.37 pg/ml) | luminescence value (PCT [4]; PCT 4.12 pg/ml) | luminescence value (PCT [4]; PCT 12.35 pg/ml) | luminescence value (PCT [4]; PCT 37.04 pg/ml) | luminescence value (PCT [4]; PCT 111.1 pg/ml) | luminescence value (PCT [4]; PCT 333.3 pg/ml) | Signal-to-noise ratio at 1000 pg/ml (PCT [4]) | luminescence value (PCT [4]; [10])
1 | higher signal-to-noise ratios | 65.1 | 30623 | 463 | VDGWRLHEKIS [RA141] | 5000 | 8685 | 42762 | 333241 | 1399433 | 8.6 | 5414 |  |  |  |  |  |  |  |  | 
2 | higher signal-to-noise ratios | 45.5 | 55957 | 1204 | VEGWRLHEKIS [RA116] | 5000 | 11673 | 69976 | 515360 | 1784513 | 14.0 | 5301 | 362 | 406 | 473 | 602 | 1212 | 2700 | 7341 | 56.6 | 20492
3 | higher signal-to-noise ratios | 67.7 | 31936 | 465 | VEGYRLFDKKW [RB239] | 5000 | 11004 | 57648 | 466004 | 2167580 | 11.5 | 5622 | 288 | 301 | 332 | 407 | 590 | 1318 | 3364 | 31.1 | 8952
4 |  | 43.7 | 35245 | 788 | VEGYRLFDRKL [RB135] | 5000 | 11916 | 67860 | 536667 | 1936894 | 13.6 | 5698 | 380 | 367 | 422 | 575 | 943 | 2137 | 5480 | 40.0 | 15181
5 | higher signal-to-noise ratios | 38.2 | 47227 | 1206 | VEGYRLFEKVW [RB085] | 5000 | 11950 | 69595 | 554514 | 1830312 | 13.9 | 5486 | 337 | 384 | 445 | 556 | 932 | 2102 | 5551 | 45.8 | 15446
6 | higher signal-to-noise ratios | 12.2 | 3993 | 302 | VEGYRLFNKEW [RB284] | 5000 | 7039 | 24677 | 187742 | 861878 | 4.9 | 5288 |  |  |  |  |  |  |  |  | 
7 | higher signal-to-noise ratios | 36.9 | 81063 | 2139 | VSGWRIHEKIS [RA120] | 5000 | 13450 | 90072 | 694625 | 1999707 | 18.0 | 5257 |  |  |  |  |  |  |  |  | 

From patent EP4700040A1, “PEPTIDE AND LUMINESCENT COMPLEX CONTAINING SAME” (Shenzhen Loggene Life Science & Technology Co., Ltd., priority 2023, dated 2024)
